Reference: patent publication US20240368150A1 (Hoffmann-La Roche Inc., priority 2021, published 2024)
Read-outs that look alike come from different tables or passages of the source.

Assays:
primary human T-cells [1] = test system: primary human T-cells
primary human T-cells [2] = assay: Proliferation assay after 5 days (CellTiter-Glo, CD3 stimulation; PBS counter screen); format: cell-based; conditions: Homo sapiens, T-cell, 120 h, CD3 stimulation; for Emax: 5 days, normalized to reference compound A1 as stimulator control = 100%, DMSO neutral control, read-out: Emax proliferation (% activation); for EC50: primary human T-cells, CellTiter-Glo after 5 days, EC50 of fitted sigmoidal curve, read-out: Tcell Proliferation CD3 EC50
Summary of the method: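 Proliferation is measured 5 days post-treatment as ATP-dependent luminescence. Flags mark compounds that activated unstimulated cells or harmed viability.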

SMILES | EC50 (primary human T-cells [1]) [nM] | Emax (primary human T-cells [2]) [%] | EC50 (primary human T-cells [2]) [nM]
N[C@H]1CS(=O)(=O)c2cc(F)c(-c3noc(C(N)(C4CCOCC4)C(F)(F)F)n3)cc2N(Cc2ccc(Cl)cc2)C1=O (stereo partly drawn) [Example 294, (3R)-3-amino-7-[5-(1-amino-2,2,2-trifluoro-1-tetrahydropyran-4-yl-ethyl)-1,2,4-oxadiazol-3-yl]-5-[(4-chlorophenyl)methyl]-8-fluoro-1,1-dioxo-2,3-dihydro-1λ^6,5-benzothiazepin-4-one] | 374 | 143 | 261
N[C@H]1CS(=O)(=O)c2cc(F)c(-c3noc(C(F)C(F)(F)F)n3)cc2N(Cc2ccc(Cl)cc2)C1=O (stereo partly drawn) [Example 296, (3R)-3-amino-5-[(4-chlorophenyl)methyl]-8-fluoro-1,1-dioxo-7-[5-(1,2,2,2-tetrafluoroethyl)-1,2,4-oxadiazol-3-yl]-2,3-dihydro-1λ^6,5-benzothiazepin-4-one] | 710 | 66 | 687
CN(C)C(=O)c1nc(-c2cc3c(cc2F)S(=O)(=O)C[C@H](N)C(=O)N3Cc2ccc(Cl)cc2)no1 [Example 299, 3-[(3R)-3-amino-5-[(4-chlorophenyl)methyl]-8-fluoro-1,1,4-trioxo-2,3-dihydro-1λ^6,5-benzothiazepin-7-yl]-N,N-dimethyl-1,2,4-oxadiazole-5-carboxamide] | 2500 | 111 | 5010
CC1(C)CNCC(c2nc(-c3cc4c(cc3F)S(=O)(=O)C[C@H](N)C(=O)N4Cc3ccc(Cl)cc3)no2)C1 (stereo partly drawn) [Example 302, (3R)-3-amino-5-[(4-chlorophenyl)methyl]-7-[5-(5,5-dimethyl-3-piperidyl)-1,2,4-oxadiazol-3-yl]-8-fluoro-1,1-dioxo-2,3-dihydro-1λ^6,5-benzothiazepin-4-one] | > 10000 | 76 | 990
CNC(=O)N1CCC(C)(c2nc(-c3cc4c(cc3F)S(=O)(=O)C[C@H](N)C(=O)N4Cc3ccc(Cl)cc3)no2)CC1 [Example 304, 4-[3-[(3R)-3-amino-5-[(4-chlorophenyl)methyl]-8-fluoro-1,1,4-trioxo-2,3-dihydro-1λ^6,5-benzothiazepin-7-yl]-1,2,4-oxadiazol-5-yl]-N,4-dimethyl-piperidine-1-carboxamide] | 8140 | 61 | 7490
CCN1CCC(C)(c2nc(-c3cc4c(cc3F)S(=O)(=O)C[C@H](N)C(=O)N4Cc3ccc(Cl)cc3)no2)CC1 [Example 306, (3R)-3-amino-5-[(4-chlorophenyl)methyl]-7-[5-(1-ethyl-4-methyl-4-piperidyl)-1,2,4-oxadiazol-3-yl]-8-fluoro-1,1-dioxo-2,3-dihydro-1λ^6,5-benzothiazepin-4-one] | 571 | 79 | 3480
CC1(c2nc(-c3cc4c(cc3F)[S+]([O-])C[C@H](N)C(=O)N4Cc3ccc(Cl)cc3)no2)CC[N+]([O-])(CC(F)(F)F)CC1 (stereo partly drawn) [Example 308, (3R)-3-amino-5-[(4-chlorophenyl)methyl]-8-fluoro-7-[5-[4-methyl-1-oxido-1-(2,2,2-trifluoroethyl)piperidin-1-ium-4-yl]-1,2,4-oxadiazol-3-yl]-1-oxo-2,3-dihydro-1λ^4,5-benzothiazepin-4-one] | > 10000 | 61 | 7630
CC1(c2nc(-c3cc4c(cc3F)S(=O)(=O)C[C@H](N)C(=O)N4Cc3ccc(Cl)cc3)no2)CCN(CC(F)(F)F)CC1 [Example 309, (3R)-3-amino-5-[(4-chlorophenyl)methyl]-8-fluoro-7-[5-[4-methyl-1-(2,2,2-trifluoroethyl)-4-piperidyl]-1,2,4-oxadiazol-3-yl]-1,1-dioxo-2,3-dihydro-1λ^6,5-benzothiazepin-4-one] | 443 | 202 | 
CCOC(=O)N1CC2CC(c3nc(-c4cc5c(cc4F)S(=O)(=O)C[C@H](N)C(=O)N5Cc4ccc(Cl)cc4)no3)(C2)C1 [Example 315, ethyl 1-[3-[(3R)-3-amino-5-[(4-chlorophenyl)methyl]-8-fluoro-1,1,4-trioxo-2,3-dihydro-1λ^6,5-benzothiazepin-7-yl]-1,2,4-oxadiazol-5-yl]-3-azabicyclo[3.1.1]heptane-3-carboxylate] | 1030 | 131 | 
CC(C)OC(=O)N1CC2CC(c3nc(-c4cc5c(cc4F)S(=O)(=O)C[C@H](N)C(=O)N5Cc4ccc(Cl)cc4)no3)(C2)C1 [Example 316, isopropyl 1-[3-[(3R)-3-amino-5-[(4-chlorophenyl)methyl]-8-fluoro-1,1,4-trioxo-2,3-dihydro-1λ^6,5-benzothiazepin-7-yl]-1,2,4-oxadiazol-5-yl]-3-azabicyclo[3.1.1]heptane-3-carboxylate] | 679 | 112 | 
COC(=O)N1CC2CC(c3nc(-c4cc5c(cc4F)S(=O)(=O)C[C@H](N)C(=O)N5Cc4ccc(Cl)cc4)no3)(C2)C1 [Example 317, methyl 1-[3-[(3R)-3-amino-5-[(4-chlorophenyl)methyl]-8-fluoro-1,1,4-trioxo-2,3-dihydro-1λ^6,5-benzothiazepin-7-yl]-1,2,4-oxadiazol-5-yl]-3-azabicyclo[3.1.1]heptane-3-carboxylate] | 2230 | 142 | 
N[C@H]1CS(=O)(=O)c2cc(F)c(-c3noc(C4(C(F)(F)F)CC4)n3)cc2N(Cc2ccc(Cl)cc2)C1=O [Example 318, (3R)-3-amino-5-[(4-chlorophenyl)methyl]-8-fluoro-1,1-dioxo-7-[5-[1-(trifluoromethyl)cyclopropyl]-1,2,4-oxadiazol-3-yl]-2,3-dihydro-1λ^6,5-benzothiazepin-4-one] | 550 | 140 | 255
CC(O)(c1nc(-c2cc3c(cc2F)S(=O)(=O)C[C@H](N)C(=O)N3Cc2ccc(Cl)cc2)no1)C(F)(F)F (stereo partly drawn) [Example 319, (3R)-3-amino-5-[(4-chlorophenyl)methyl]-8-fluoro-1,1-dioxo-7-[5-(2,2,2-trifluoro-1-hydroxy-1-methyl-ethyl)-1,2,4-oxadiazol-3-yl]-2,3-dihydro-1λ^6,5-benzothiazepin-4-one] | 458 | 113 | 244
N[C@H]1CS(=O)(=O)c2cc(F)c(-c3noc(C4(CO)CCCO4)n3)cc2N(Cc2ccc(Cl)cc2)C1=O (stereo partly drawn) [Example 320, (3R)-3-amino-5-[(4-chlorophenyl)methyl]-8-fluoro-7-[5-[2-(hydroxymethyl)tetrahydrofuran-2-yl]-1,2,4-oxadiazol-3-yl]-1,1-dioxo-2,3-dihydro-1λ^6,5-benzothiazepin-4-one] | 3210 | 107 | 3060
Cc1nnc(-c2nc(-c3cc4c(cc3F)S(=O)(=O)C[C@H](N)C(=O)N4Cc3ccc(Cl)cc3)no2)o1 [Example 322, (3R)-3-amino-5-[(4-chlorophenyl)methyl]-8-fluoro-7-[5-(5-methyl-1,3,4-oxadiazol-2-yl)-1,2,4-oxadiazol-3-yl]-1,1-dioxo-2,3-dihydro-1λ^6,5-benzothiazepin-4-one] | 740 | 110 | 751

The next lines start with results.

EC50 (primary human T-cells [1]) [nM] | SMILES | Emax (primary human T-cells [2]) [%] | EC50 (primary human T-cells [2]) [nM]
885 | CC(F)(F)CNC(=O)c1nc(-c2cc3c(cc2F)S(=O)(=O)C[C@H](N)C(=O)N3Cc2ccc(Cl)cc2)no1 [Example 295, 3-[(3R)-3-amino-5-[(4-chlorophenyl)methyl]-8-fluoro-1,1,4-trioxo-2,3-dihydro-1λ^6,5-benzothiazepin-7-yl]-N-(2,2-difluoropropyl)-1,2,4-oxadiazole-5-carboxamide] | 97 | 1390
6140 | CC(O)(CNC(=O)c1nc(-c2cc3c(cc2F)S(=O)(=O)C[C@H](N)C(=O)N3Cc2ccc(Cl)cc2)no1)C(F)(F)F (stereo partly drawn) [Example 301, 3-[(3R)-3-amino-5-[(4-chlorophenyl)methyl]-8-fluoro-1,1,4-trioxo-2,3-dihydro-1λ^6,5-benzothiazepin-7-yl]-N-(3,3,3-trifluoro-2-hydroxy-2-methyl-propyl)-1,2,4-oxadiazole-5-carboxamide] | 93 | 2440
1810 | CC1(c2nc(-c3cc4c(cc3F)S(=O)(=O)C[C@H](N)C(=O)N4Cc3ccc(Cl)cc3)no2)CCN(C(=O)N2CCCC2)CC1 [Example 305, (3R)-3-amino-5-[(4-chlorophenyl)methyl]-8-fluoro-7-[5-[4-methyl-1-(pyrrolidine-1-carbonyl)-4-piperidyl]-1,2,4-oxadiazol-3-yl]-1,1-dioxo-2,3-dihydro-1λ^6,5-benzothiazepin-4-one] | 84 | 720
3240 | Cc1ccncc1-c1nc(-c2cc3c(cc2F)S(=O)(=O)C[C@H](N)C(=O)N3Cc2ccc(Cl)cc2)no1 [Example 310, (3R)-3-amino-5-[(4-chlorophenyl)methyl]-8-fluoro-7-[5-(4-methyl-3-pyridyl)-1,2,4-oxadiazol-3-yl]-1,1-dioxo-2,3-dihydro-1λ^6,5-benzothiazepin-4-one] | 90 | 2710
226 | Cc1nc(F)ccc1-c1nc(-c2cc3c(cc2F)S(=O)(=O)C[C@H](N)C(=O)N3Cc2ccc(Cl)cc2)no1 [Example 312, (3R)-3-amino-5-[(4-chlorophenyl)methyl]-8-fluoro-7-[5-(6-fluoro-2-methyl-3-pyridyl)-1,2,4-oxadiazol-3-yl]-1,1-dioxo-2,3-dihydro-1λ^6,5-benzothiazepin-4-one] | 163 | 80.6
597 | CC(C)(C#N)c1nc(-c2cc3c(cc2F)S(=O)(=O)C[C@H](N)C(=O)N3Cc2ccc(Cl)cc2)no1 [Example 321, 2-[3-[(3R)-3-amino-5-[(4-chlorophenyl)methyl]-8-fluoro-1,1,4-trioxo-2,3-dihydro-1λ^6,5-benzothiazepin-7-yl]-1,2,4-oxadiazol-5-yl]-2-methyl-propanenitrile] | 130 | 250
